Literature values as cited in US20180085319A1, “METHODS AND COMPOSITIONS FOR TREATING CANCER” (priority 2016, published 2018).

Tested on: anti-immunotoxin immune response

Substance	prevention of anti-immunotoxin immune response in patients (B cell depletion)	effect on immune response to SS1P in mesothelioma patients (immunosuppressive treatment given with SS1P)
Rituximab	ineffective in preventing anti-immunotoxin immune response	
cyclophosphamide and pentostatin [cyclophosphamide and pentostatin (CP/PS)]		only delayed the response to the immunotoxin
